Assay results taken from US7371207B2 (Wyeth, priority 2002, dated 2008).
Each block holds one compound with its values, some of them ahead of it.

Tests used:
[1] = test system: gene expression in the kidney of mice expressing ΔAF1-ERα; experiment: Real-time PCR of kidney gene expression in ERαERβKO or ERαKO mice expressing ΔAF1-ERα
Description: Kidney gene expression values were determined by real-time PCR for each individual animal and normalized for GAPDH expression. The mean expression level in vehicle-treated WT mice was defined as 1 for each gene. *p<0.01 for comparison to vehicle treated animals.
One week later, the animals were ovariectomized. Commencing the day after ovariectomy, each animal received a daily subcutaneous treatment with vehicle (50% DMSO, 50% phosphate buffered saline) or vehicle containing treatments for six weeks. Each group consisted of six or seven animals. Approximately 2 hours following the final treatment, the animals were euthanized with selected tissues frozen in liquid nitrogen for RNA analysis or on dry ice for histology.

ERα = ERα (Homo sapiens, UniProt P03372); conditions: cited from earlier work
[2] = test system: gene expression in the kidney; experiment: Real-time PCR of kidney gene expression in ovariectomized WT mice; conditions: 10 μg/kg/day E2 or 5 mg/kg/day tamoxifen, 6 weeks, FIG. 8
Excerpt: FIGS. 5A-5B show a series of graphs showing expression levels for various genes. […] (B) Uterine wet weights (mg) and gene expression values (mean±SEM).
FIGS. 6A-6D show a series of bar graphs depicting relative expression levels for various genes.
(§1) One week later, the animals were ovariectomized.

[3] = test system: gene expression in the kidney; experiment: GeneChip microarray survey of E2 regulated gene expression, kidney
Description: (§2) FIG. 1 depicts a pattern analysis generated by a GeneChip microarray analysis. […] Two hours following the final dose, the mice were euthanized and 13 tissues removed for RNA preparation. Two independent studies were performed, with total RNA pooled from two groups of three animals for each condition. Gene expression was quantified by GeneChip microarrays using murine U74 sub A arrays. Data were analyzed for patterns indicating either ERα or ERβ dependent regulation as shown. […] The number of genes in each tissue that matched the theoretical induction (↑) or repression (↓) patterns for ERα or ERβ are indicated.
FIGS. 2A-2C show a series of bar graphs showing gene expression levels of known genes regulated in the kidney in an ERα pattern. […] Expression was measured in two independent sets of animals, with two groups of animals for each treatment in each study. A gene name abbreviation is shown above each graph, with the corresponding Unigene designation shown below.
as §1
(§3) GeneChip—Total RNA was prepared separately from each individual organ by using Trizol (Invitrogen) followed by subsequent repurification on Rneasy columns (Qiagen). In general, two pools of RNA were created using equal amounts of RNA from three mice. For small organs such as pituitary, an equal amount of RNA from six animals was combined.
(§4) Target Preparation and Array Hybridization—Total RNA was used to generate biotin labeled cRNA target as described (8) which was hybridized to the murine MG_U74Av2 probe arrays (Affymetrix, Santa Clara, Calif.) for 16 h at 45° C. Eleven biotin-labeled cRNAs at defined concentration were spiked into each hybridization and used to convert average difference values to frequencies expressed as parts per million.
(§5) The resulting data set was queried for genes whose regulation was dependent on ERα or ERβ.

[4] = test system: gene expression in the uterus; experiment: GeneChip microarray survey of E2 regulated gene expression, uterus
Description: as §2, §1, §3, §4, §5

[5] = test system: gene expression in the pituitary; experiment: GeneChip microarray survey of E2 regulated gene expression, pituitary; type: in vivo, mouse; conditions: mouse, in vivo
Excerpt: as §1

[6] = test system: gene expression in the kidney; experiment: In situ hybridization of kidney, ovariectomized mice; type: in vivo, mouse; conditions: regulated only in tubule epithelial cells
Excerpt: (§6) No signal was detected with the corresponding sense probes.
(§7) Generally, in situ hybridization comprises the following major steps: (1) fixation of tissue or biological structure to be analyzed; (2) prehybridization treatment of the biological structure to increase accessibility of target nucleic acid, and to reduce nonspecific binding; (3) hybridization of the mixture of nucleic acids to the nucleic acid in the biological structure or tissue; (4) post-hybridization washes to remove nucleic acid fragments not bound in the hybridization, and (5) detection of the hybridized nucleic acid fragments. The probes used in such applications are typically labeled, for example, with radioisotopes or fluorescent reporters. Preferred probes are sufficiently long, for example, from about 50, 100, or 200 nucleotides to about 1000 or more nucleotides, to enable specific hybridization with the target nucleic acid(s) under stringent conditions.
as §1

[7] = test system: gene expression in the kidney; experiment: In situ hybridization of kidney, ovariectomized rats; type: in vivo, rat
Excerpt: as §6, §7, §1

[8] = 10 μg/kg/day E2 or 5 mg/kg/day tamoxifen, 6 weeks, FIG. 8
[9] = Table II: mouse uterus and human endometrium
[10] = WT versus ΔAF1-ERα mice, E2 versus tamoxifen

Sequence of ERα (P03372 whole entry): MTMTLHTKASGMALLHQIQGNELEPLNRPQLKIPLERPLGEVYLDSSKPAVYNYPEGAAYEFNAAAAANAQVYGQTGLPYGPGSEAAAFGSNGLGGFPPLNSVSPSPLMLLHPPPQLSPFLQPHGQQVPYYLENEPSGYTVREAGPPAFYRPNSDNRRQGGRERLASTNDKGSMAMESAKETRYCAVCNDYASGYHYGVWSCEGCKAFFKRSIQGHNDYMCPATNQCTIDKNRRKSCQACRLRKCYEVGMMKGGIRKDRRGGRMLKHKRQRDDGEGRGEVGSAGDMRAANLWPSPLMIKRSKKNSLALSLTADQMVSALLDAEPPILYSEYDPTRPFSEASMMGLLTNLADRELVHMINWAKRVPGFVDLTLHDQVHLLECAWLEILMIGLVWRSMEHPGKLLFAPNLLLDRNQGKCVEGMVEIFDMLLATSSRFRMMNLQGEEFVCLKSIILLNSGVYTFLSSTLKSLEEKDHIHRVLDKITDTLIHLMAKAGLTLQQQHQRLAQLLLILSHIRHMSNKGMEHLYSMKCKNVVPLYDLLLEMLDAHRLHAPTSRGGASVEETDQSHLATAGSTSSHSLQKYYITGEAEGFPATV

effect on E2 induction of CYP7B1 in kidney ([1]; 10 μg/kg/day E2 + 5 mg/kg/day ICI182780, 6 weeks, FIG. 8): blocked
Compound: C[C@]12CC[C@@H]3c4ccc(O)cc4C[C@@H](CCCCCCCCC[S+]([O-])CCCC(F)(F)C(F)(F)F)[C@H]3[C@@H]1CC[C@@H]2O (some centres unmarked) [ICI182780]
effect on E2 regulation of gene expression in the kidney ([1]; 10 μg/kg/day E2 + 5 mg/kg/day ICI182780, FIG. 8): complete antagonist

Compound: CCCc1c(-c2ccc(O)cc2)nn(-c2ccc(O)cc2)c1-c1ccc(O)cc1 [PPT, 4-propyl-1,3,5-Tris(4-hydroxy-phenyl)pyrazole]
activation of ERα versus ERβ (ERα): exclusively activates ERα but not ERβ

CYP7B1 expression in kidney, WT mice [2]: induced by E2 but not by tamoxifen
Compound: CC/C(=C(\c1ccccc1)c1ccc(OCCN(C)C)cc1)c1ccccc1 [tamoxifen]
BCAT1 expression in kidney, WT mice [2]: induced
TF expression in kidney, WT mice [2]: induced
BCAT1 expression in kidney, ERαERβKO mice [1, 8]: did not
TF expression in kidney, ERαERβKO mice (express only ΔAF1-ERα) [1, 8]: Neither compound could induce TF expression

Compound: estrogen
ABCC3 expression in kidney ([3]; mRNA level): induced expression
NTT73 expression in kidney ([3]; mRNA level): induced expression
BCAT1 expression in kidney ([3]; mouse, in vivo): induced expression
BHMT expression in kidney ([3]; mouse, in vivo): repressed expression
SAHH expression in kidney ([3]; mouse, in vivo): repressed expression
STAT5A expression in kidney ([3]; mouse, in vivo): induced expression
Tissue Factor expression in kidney ([3]; mouse, in vivo): induced expression
BHMT expression in kidney ([3]; mouse, in vivo, listed as estrogens): A repression by estrogens
Deiodinase, type II expression in uterus [4, 9]: induced
IGFBP4 expression in uterus [4, 9]: induced
Procollagen, type I, alpha 1 expression in uterus [4, 9]: induced
SFRP4 expression in uterus [4, 9]: induced
Scavenger receptor expression in uterus [4, 9]: repressed
vimentin expression in uterus [4, 9]: induced
AI121305 expression in uterus ([4]; mouse, in vivo): induced
ALOX15 expression in uterus ([4]; mouse, in vivo): induced
BCAT1 expression in uterus ([4]; mouse, in vivo): induced
C3 expression in uterus ([4]; mouse, in vivo): induced
CEBPb expression in uterus ([4]; mouse, in vivo): induced
EGR1 expression in uterus ([4]; mouse, in vivo): induced
FOS expression in uterus ([4]; mouse, in vivo): induced
MAP2k1 expression in uterus ([4]; mouse, in vivo): induced
SiAMOX expression in uterus ([4]; mouse, in vivo): induced
FSHb expression in pituitary [5]: repressed
GADD45G expression in pituitary [5]: induced
STAT5B expression in pituitary [5]: induced
FSHb expression in pituitary ([5]; listed as estrogens): Repressed by estrogens
GADD45G expression in pituitary ([5]; listed as estrogens): Induced by estrogens
STAT5B expression in pituitary ([5]; listed as estrogens): Induced by estrogens
GADD45G expression in kidney [6]: induced expression
regulation of STAT5A and GADD45G in rat kidney ([7]; 20 μg/kg/day E2 six weeks, FIG. 4): occurred in rat kidney juxtamedullary region
GADD45G regulation in kidney across species ([7]; mouse and rat): Regulated in multiple species (mouse and rat)
STAT5A regulation in kidney across species ([7]; mouse and rat): Regulated in multiple species (mouse and rat)
mechanism of induction of BCAT1 in kidney (ERα AF1 or AF2) [1, 10]: Mechanism is ERα AF1 + AF2 dependent
mechanism of induction of CYP7B1 in kidney (ERα AF1 or AF2) [1, 10]: Mechanism is ERα AF2 dependent
mechanism of induction of TF (Tissue Factor) in kidney (ERα AF1 or AF2) [1, 10]: Mechanism is ERα AF1 dependent
